Holding throughout (assay type): physicochemical
Data set [1] is described as follows: Solubility in JP1, JP2, JP2+TC, FaSSIF, FeSSIF (shaking 10 minutes at room temperature, HPLC). As to conditions: 10 minutes shaking. Here is the method: 0.5 mg to 1 mg of a sample was weighed in 10 mL of a centrifuge tube, and respective solutions (see below) were added thereto such that the amount thereof became approximately 150 μg/mL. In order to disperse the sample uniformly, the solution was sonicated in a water bath for a short period of time, followed by shaking at room temperature for 10 minutes using a shaker SA31 (manufactured by Yamato Scientific Co., Ltd.). The solution after being shaken was filtered with a filter, and the concentration of the compound in the filtrate was determined by HPLC. The following solutions were used.
JP1 (first solution of Japanese Pharmacopoeia Disintegration Test): 2.0 g of sodium chloride was dissolved in 7.0 mL of hydrochloric acid and water and the amount thereof was set to 1000 mL (pH: approximately 1.2).
JP2 (second solution of Japanese Pharmacopoeia Disintegration Test): 118 mL of 0.2 mol/L sodium hydroxide test solution and water were added to 250 mL of 0.2 mol/L potassium dihydrogen phosphate test solution and the amount thereof was set to 1000 mL (pH: approximately 6.8).
JP2+bile acid (JP2+TC): sodium taurocholic acid was added to the second solution of Japanese Pharmacopoeia Disintegration Test such that the amount thereof became 15 mmol/L.
FaSSIF (simulated intestinal fluid (fasted state)): 3 mmol/L of sodium taurochloric acid, 0.75 mmol/L of lecithin, 3.9 g of potassium dihydrogen phosphate, and 7.7 g of potassium chloride were added to 1 L of water and the pH thereof was adjusted to approximately 6.5 using sodium hydroxide.
FeSSIF (simulated intestinal fluid (fed state)): 15 mmol/L of sodium taurochloric acid, 3.75 mmol/L of lecithin, 8.65 g of acetic acid, and 15.2 g of potassium chloride were added to 1 L of water and the pH thereof was adjusted to approximately 5.0 using sodium hydroxide.
Device: LC1100 (manufactured by Agilent Technologies)
Mobile phase: A: 0.01 mol/L aqueous ammonium acetate solution, B: 0.01 mol/L ammonium acetate methanol solution
Column: Developsil Combi-RP-5.5 μm (2.1 mm×50 mm)
Column temperature: 40° C.
Detection wavelength: 254 nm

Data set [2] is described as follows: Physical solid stability (powder X-ray diffraction and DSC). As to conditions: 70° C., plugged up, uncontrolled humidity, two weeks. On the procedure:
With respect to solid state stability of the crystals of the present invention, physical/chemical stability under temperature and humidity conditions, and chemical stability in a light irradiation state were evaluated. The physical stability was evaluated by the powder X-ray diffraction and the differential scanning calorimetry analysis (DSC) (under the above-described measurement conditions). The chemical stability was evaluated by HPLC (related substance test and optical isomer separating test), and represented by the ratio (%) of generated impurities.
(Solid State Stability, Temperature)
In an Incubator IC-450A (manufactured by AS ONE Corporation) set as 70° C., a sample was plugged up and stored under the uncontrolled humidity environment for two weeks.
(Solid State Stability, Temperature/Humidity)

Data set [3] in a line: Hygroscopicity test (VTI SGA-100). As to conditions: 25° C., 5% to 95% relative humidity. On the procedure:
Measurement of the hygroscopicity of the crystals of the present invention was performed by using VTI SGA-100 under the conditions of temperature: 25° C., measurement range: 5% to 95% relative humidity, and measurement interval: 5% relative humidity.

[4] abbreviates: FaSSIF (simulated intestinal fluid, pH 6.5), FaSSIF (fasted state), pH approximately 6.5, room temperature, read-out: Solubility FaSSIF.
[5] abbreviates: FeSSIF (simulated intestinal fluid, pH 5), FeSSIF (fed state), pH approximately 5.0, room temperature, read-out: Solubility FeSSIF.
Where [6] appears, read: JP2+TC (JP2 + bile acid), JP2 + 15 mmol/L sodium taurocholic acid, room temperature, read-out: Solubility JP2 + TC.
Where [7] appears, read: pH 1.2, JP1, pH approximately 1.2, room temperature, read-out: Solubility JP1.
[8] abbreviates: pH 6.8, JP2, pH approximately 6.8, room temperature, read-out: Solubility JP2.

Where two headings read alike, the source gives them in different places.

As a reminder, the solubility is the concentration that dissolves in the medium under given conditions. For the compound `Br.C[C@@H]1CN(c2ccc(C#N)c(Cl)c2)[C@@H](C)CN1C(=O)Nc1cnc(C2CC2)nc1` [(2R,5S)-4-(3-chloro-4-cyanophenyl)-N-(2-cyclopropylpyrimidin-5-yl)-2,5-dimethylpiperazine-1-carboxamide hydrobromide], the solubility at 10 minutes was 41 µg/mL in data set [1] (setting [4]); 94.9 µg/mL in data set [1] (setting [5]); > 80.6 µg/mL in data set [1] (setting [6]); 12.3 µg/mL in data set [1] (setting [7]); 19.8 µg/mL in data set [1] (setting [8]). In addition, in data set [2], the “Physical solid stability, temperature” value is given as “Stable to the temperature”. For the same compound, the Hygroscopicity in data set [3] was 0.1% or less.
With `C[C@@H]1CN(c2ccc(C#N)c(Cl)c2)[C@@H](C)CN1C(=O)Nc1cnc(C2CC2)nc1.Cl` [(2R,5S)-4-(3-chloro-4-cyanophenyl)-N-(2-cyclopropylpyrimidin-5-yl)-2,5-dimethylpiperazine-1-carboxamide hydrochloride], the solubility at 10 minutes was 39.4 µg/mL in data set [1] (setting [4]); > 100 µg/mL in data set [1] (setting [5]); 92.8 µg/mL in data set [1] (setting [6]); 9.7 µg/mL in data set [1] (setting [7]); 10.1 µg/mL in data set [1] (setting [8]). The “Physical solid stability, temperature” value in data set [2] is on record as “Stable to the temperature”. In addition, the Hygroscopicity in data set [3] is reported as ~1.4%.
For the compound `CS(=O)(=O)O.C[C@@H]1CN(c2ccc(C#N)c(Cl)c2)[C@@H](C)CN1C(=O)Nc1cnc(C2CC2)nc1` [(2R,5S)-4-(3-chloro-4-cyanophenyl)-N-(2-cyclopropylpyrimidin-5-yl)-2,5-dimethylpiperazine-1-carboxamide methanesulfonate], the solubility at 10 minutes in data set [1] (setting [4]) is 47.2 µg/mL; in data set [1] (setting [5]) it was > 100 µg/mL; in data set [1] (setting [6]), > 100 µg/mL; in data set [1] (setting [7]) it was > 100 µg/mL; in data set [1] (setting [8]) it was 20.6 µg/mL. Moreover, in data set [3], the Hygroscopicity is on record as ~5%.
For `C[C@@H]1CN(c2ccc(C#N)c(Cl)c2)[C@@H](C)CN1C(=O)Nc1cnc(C2CC2)nc1.O` [(2R,5S)-4-(3-chloro-4-cyanophenyl)-N-(2-cyclopropylpyrimidin-5-yl)-2,5-dimethylpiperazine-1-carboxamide monohydrate], the solubility at 10 minutes is 4.4 µg/mL in data set [1] (setting [4]); 17.7 µg/mL in data set [1] (setting [5]); 8.8 µg/mL in data set [1] (setting [6]); 21.8 µg/mL in data set [1] (setting [7]); 1.6 µg/mL in data set [1] (setting [8]). Moreover, in data set [2], the “Physical solid stability, temperature” value is given as “Stable to the temperature”. For the same compound, the Hygroscopicity in data set [3] is 0.1% or less.

The values above are taken from US20140275105A1, “CRYSTAL OF ANDROGEN RECEPTOR AN[…]” (Astellas Pharma Inc., priority 2011, published 2014).
